# Assay: Evans Blue dye penetration into brain after confined swim stress
# Type: in vivo
# Settings: FIG. 6A
# Description: The above results were confirmed in animal experiments.
compound,measurement,setting,value
Cc1cc(-c2ccc(/N=N/c3ccc4c(S(=O)(=O)O)cc(S(=O)(=O)O)c(N)c4c3O)c(C)c2)ccc1/N=N/c1ccc2c(S(=O)(=O)O)cc(S(=O)(=O)O)c(N)c2c1O [Evans Blue],dye penetration into the brain,nonstressed control mice,very low levels
same,dye penetration into the brain,stressed mice,a large amount of the dye penetrates the brain

# Source: patent US7063948B1, “Uses of antibodies against AChE and peptides thereof” (Yissum Research Development Company of the Hebrew …, priority 1999, dated 2006)
